Data reported in patent US7378447B2, “Muscarinic agonists” (Eli Lilly and Company, priority 2003, dated 2008).
Where two headings read alike, the source gives them in different places.

Tested on: Male Sprague-Dawley rats
Details: six-hour delay

`Nc1c2c(nc3ccccc13)CCCC2` [Tacrine, tacrine] was tested, and the “retention (errors in retention session)” value (tacrine 3 mg/kg s.c. immediately after the sampling phase) was “not” and the “retention (errors in retention session)” value (tacrine 10 mg/kg s.c. immediately after the sampling phase) was “significantly improved retention”.
